In patent US9062041B2 (Bayer Intellectual Property GmbH, priority 2011, dated 2015):

Tests used:
Assay type in all cases: cell-based
[1] = target: EP2 subtype of the human PGE2 receptor (Homo sapiens, UniProt P43116); experiment: cAMP antagonism test on the human EP2 receptor (HTRF cAMP detection); settings: hEP2 receptor, read-out: Antagonism hEP2 IC50
Summary of the method: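 Cells expressing human EP2 preincubated 20 min at RT with compound (0.8 nM–16.5 μM), then stimulated 60 min with PGE2 (3× solution 1.5 nM) in PBS-IBMX. After 20 min lysis, cAMP measured by competitive HTRF with cAMP-d2 and Eu cryptate anti-cAMP antibody (665/620 nm ratio).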

human PGD receptor = target: T1, human PGD receptor (Homo sapiens, UniProt Q13258); experiment: cAMP antagonism test on the human prostaglandin D receptor (HTRF cAMP detection); settings: selectivity towards hDP, IC50 measured by cAMP antagonism test
T1 sequence (Q13258 1-359): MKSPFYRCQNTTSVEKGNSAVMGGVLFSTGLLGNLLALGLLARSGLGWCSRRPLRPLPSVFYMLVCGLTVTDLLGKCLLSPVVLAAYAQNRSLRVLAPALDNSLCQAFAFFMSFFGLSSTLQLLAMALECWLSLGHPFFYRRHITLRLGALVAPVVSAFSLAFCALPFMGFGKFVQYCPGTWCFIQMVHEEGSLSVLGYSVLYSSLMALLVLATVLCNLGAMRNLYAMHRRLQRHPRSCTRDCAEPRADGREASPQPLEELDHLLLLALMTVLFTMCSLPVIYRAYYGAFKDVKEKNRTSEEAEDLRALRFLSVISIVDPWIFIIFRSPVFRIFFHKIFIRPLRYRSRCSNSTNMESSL
Summary of the method: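 Cells pre-mixed with cAMP-d2 were preincubated with compound (0.8 nM–16.5 μM) for 20 min at RT, then stimulated with 3× PGD2 solution (6 nM, in PBS-IBMX) for 30 min at RT. After lysis (20 min), HTRF read at 665/620 nm; antagonism seen as rise in FRET ratio.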

[2] = target: EP4 subtype of the human PGE2 receptor (Homo sapiens, UniProt P35408); experiment: cAMP antagonism test on the human EP4 receptor (HTRF cAMP detection); settings: selectivity towards hEP4, IC50 measured by cAMP antagonism test
Sequence of EP4 subtype of the human PGE2 receptor (P35408 whole entry): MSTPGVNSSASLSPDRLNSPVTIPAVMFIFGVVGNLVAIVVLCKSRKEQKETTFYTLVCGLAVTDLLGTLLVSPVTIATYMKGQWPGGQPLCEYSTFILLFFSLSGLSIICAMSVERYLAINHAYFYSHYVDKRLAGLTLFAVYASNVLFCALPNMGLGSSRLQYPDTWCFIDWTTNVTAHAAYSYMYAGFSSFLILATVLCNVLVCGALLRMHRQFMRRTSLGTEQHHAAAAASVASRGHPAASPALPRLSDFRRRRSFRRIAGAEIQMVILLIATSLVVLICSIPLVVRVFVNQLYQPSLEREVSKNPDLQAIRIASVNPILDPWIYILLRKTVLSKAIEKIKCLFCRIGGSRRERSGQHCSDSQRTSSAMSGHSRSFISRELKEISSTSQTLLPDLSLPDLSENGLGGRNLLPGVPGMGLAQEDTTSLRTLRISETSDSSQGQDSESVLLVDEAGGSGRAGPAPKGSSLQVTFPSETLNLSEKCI
Summary of the method: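 Cells expressing human EP4 preincubated 20 min at RT with compound (0.8 nM–16.5 μM), then stimulated with PGE2 (0.3 nM in 3× solution, with IBMX) 60 min at RT. After lysis, cAMP measured by HTRF competition (665/620 nm ratio); antagonism seen as rise in FRET signal.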

Sequence of EP2 subtype of the human PGE2 receptor (P43116 whole entry): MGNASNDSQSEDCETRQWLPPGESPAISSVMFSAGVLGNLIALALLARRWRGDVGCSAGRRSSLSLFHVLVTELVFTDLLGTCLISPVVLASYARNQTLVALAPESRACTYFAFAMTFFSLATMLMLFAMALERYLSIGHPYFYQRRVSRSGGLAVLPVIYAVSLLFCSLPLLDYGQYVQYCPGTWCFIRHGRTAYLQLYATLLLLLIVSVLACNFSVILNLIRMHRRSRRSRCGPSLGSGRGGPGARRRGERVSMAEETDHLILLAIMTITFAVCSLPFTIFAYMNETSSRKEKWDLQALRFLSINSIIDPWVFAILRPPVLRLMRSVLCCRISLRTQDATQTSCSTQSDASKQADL

SMILES | IC50 [1] [nM] | Selectivity hEP2/hDP (human PGD receptor) | Selectivity hEP2/hEP4 [2]
COCCNC(=O)c1ccc2nn(CC3CCN(C(=O)c4ccc(-c5ccccc5OC(F)(F)F)cc4F)CC3)cc2c1C [Example 46, 2-[(1-{[3-fluoro-2′-(trifluoromethoxy)-biphenyl-4-yl]-carbonyl}piperidin-4-yl)methyl]-N-(2-methoxyethyl)-4-methyl-2H-indazol-5-carboxamide] | 4.91 | xxx (xxx > 100) | xxx (xxx > 100)
Cc1c(C(=O)NCCCO)ccc2nn(CC3CCN(C(=O)c4ccc(-c5ccc(F)cc5)cc4)CC3)cc12 [Example 409, 2-({1-[(4′-fluorobiphenyl-4-yl)carbonyl]piperidin-4-yl}methyl)-N-(3-hydroxypropyl)-4-methyl-2H-indazol-5-carboxamide] | 31.8 | xxx (xxx > 100) | xxx (xxx > 100)
COCCNC(=O)c1ccc2nn(CC3CCN(C(=O)c4ccc(-c5cccc(C(F)(F)F)c5)cc4F)CC3)cc2c1C [Example 45, 2-[(1-{[3-fluoro-3′-(trifluoromethyl)-biphenyl-4-yl]-carbonyl}-piperidin-4-yl)-methyl]-N-(2-methoxyethyl)-4-methyl-2H-indazol-5-carboxamide] | 5.51 | xxx (xxx > 100) | xxx (xxx > 100)
COCCNC(=O)c1ccc2nn(CC3CCN(C(=O)c4ccc(Oc5ccc(F)cc5)cc4)CC3)cc2c1OC(F)F [Example 226, 4-(difluoromethoxy)-2-({1-[4-(4-fluorophenoxy)benzoyl]piperidin-4-yl}methyl)-N-(2-methoxyethyl)-2H-indazol-5-carboxamide] | 11.9 | xxx (xxx > 100) | xxx (xxx > 100)
COCCNC(=O)c1cc2cn(CC3CN(C(=O)c4ccc(C(F)(F)F)cc4F)C3)nc2cc1C [Example 182, 2-({1-[2-fluoro-4-(trifluoromethyl)benzoyl]azetidin-3-yl}methyl)-N-(2-methoxy-ethyl)-6-methyl-2H-indazol-5-carboxamide] | 64.2 | xxx (xxx > 100) | xxx (xxx > 100)
Cc1c(C(=O)NCC(F)(F)F)ccc2nn(CC3CCN(C(=O)c4ccc(S(F)(F)(F)(F)F)cc4)CC3)cc12 [Example 71, 4-methyl-2-({1-[4-(pentafluoro-λ^6-sulphanyl)benzoyl]piperidin-4-yl}methyl)-N-(2,2,2-trifluoroethyl)-2H-indazol-5-carboxamide] | 82.9 | xxx (xxx > 100) | xxx (xxx > 100)
COCCNC(=O)c1cc2cn(CC3CN(C(=O)c4ccc(C(F)(F)F)cc4)C3)nc2cc1C [Example 186, N-(2-methoxyethyl)-6-methyl-2-({1-[4-(trifluoromethyl)benzoyl]azetidin-3-yl}methyl)-2H-indazol-5-carboxamide] | 51.9 | xxx (xxx > 100) | xxx (xxx > 100)
Cc1cc2nn(CC3CN(C(=O)c4ccc(Cl)cc4)C3)cc2cc1C(=O)NCC1CCCCO1 (racemic) [Example 191, (+/−)-2-{[1-(4-chlorobenzoyl)azetidin-3-yl]methyl}-6-methyl-N-(3,4,5,6-tetrahydro-2H-pyran-2-ylmethyl)-2H-indazol-5-carboxamide] | 47.1 | xxx (xxx > 100) | xxx (xxx > 100)
COCCNC(=O)c1ccc2nn(CC3CCN(C(=O)c4ccc(Br)c(C)c4)CC3)cc2c1C [Example 332, 2-{[1-(4-bromo-3-methylbenzoyl)piperidin-4-yl]methyl}-N-(2-methoxyethyl)-4-methyl-2H-indazol-5-carboxamide] | 5.47 | xxx (xxx > 100) | xxx (xxx > 100)
Cc1c(C(=O)NCC(F)(F)F)ccc2nn(CC3CCN(C(=O)c4cc5ccccc5[nH]4)CC3)cc12 [Example 296, 2-{[1-(1H-Indol-2-ylcarbonyl)piperidin-4-yl]methyl}-4-methyl-N-(2,2,2-trifluoroethyl)-2H-indazol-5-carboxamide] | 29.7 | xxx (xxx > 100) | xxx (xxx > 100)
Cc1c(C(=O)NCCN2CCOCC2)ccc2nn(CC3CCN(C(=O)c4ccc(C(F)(F)F)cc4)CC3)cc12 [Example 63, 4-methyl-N-(2-morpholinoethyl)-2-({1-[4-(trifluoromethyl)benzoyl]piperidin-4-yl}methyl)-2H-indazol-5-carboxamide] | 1440 | xx (xx: 10-100) | xx (xx: 10-100)
COCCNC(=O)c1ccc2nn(CC3CCN(C(=O)c4ccc(C(F)(F)F)cc4F)CC3)cc2c1OC [Example 267, 2-({1-[2-fluoro-4-(trifluoromethyl)benzoyl]piperidin-4-yl}methyl)-4-methoxy-N-(2-methoxyethyl)-2H-indazol-5-carboxamide] | 45.5 | xxx (xxx > 100) | xxx (xxx > 100)
COCCNC(=O)c1ccc2nn(CC3CCN(C(=O)c4ccc(Oc5ccc(F)cc5)cc4)CC3)cc2c1C [Example 3, 2-({1-[4-(4-fluorophenoxy)benzoyl]piperidin-4-yl}methyl)-N-(2-methoxyethyl)-4-methyl-2H-indazol-5-carboxamide] | 4.91 | xxx (xxx > 100) | xxx (xxx > 100)
COCCNC(=O)c1ccc2nn(CC3CCN(C(=O)c4ccc(Oc5ccc(Cl)cn5)cc4)CC3)cc2c1C [Example 357, 2-[(1-{4-[(5-chloropyridin-2-yl)oxy]benzoyl}piperidin-4-yl)methyl]-N-(2-methoxyethyl)-4-methyl-2H-indazol-5-carboxamide] | 7.36 | xxx (xxx > 100) | xxx (xxx > 100)
Cc1c(C(=O)NCC(C)(C)C)ccc2nn(CC3CCN(C(=O)c4ccc(Oc5ccc(C(F)(F)F)cc5)cc4)CC3)cc12 [Example 405, 4-methyl-N-neopentyl-2-[(1-{4-[4-(trifluoromethyl)phenoxy]benzoyl}piperidin-4-yl)methyl]-2H-indazol-5-carboxamide] | 2140 | x (x: 1-10) | x (x: 1-10)
[2H]C([2H])([2H])OC([2H])([2H])C([2H])([2H])NC(=O)c1ccc2nn(CC3CCN(C(=O)c4ccc(Cl)cc4)CC3)cc2c1C [Example 115, 2-{[1-(4-chlorobenzoyl)piperidin-4-yl]methyl}-N-(2-[^2H3]methoxy[^2H4]ethyl)-4-methyl-2H-indazol-5-carboxamide] | 9.05 | xxx (xxx > 100) | xxx (xxx > 100)
Cc1c(C(=O)NCC2CCCCO2)ccc2nn(CC3CN(C(=O)c4ccc(Cl)cc4)C3)cc12 (racemic) [Example 144, (+/−)-2-{[1-(4-chlorobenzoyl)azetidin-3-yl]methyl}-4-methyl-N-(3,4,5,6-tetrahydro-2H-pyran-2-ylmethyl)-2H-indazol-5-carboxamide] | 50.8 | xxx (xxx > 100) | xxx (xxx > 100)
Cc1c(C(=O)NCC2COCCO2)ccc2nn(CC3CCN(C(=O)c4ccc(Cl)cc4)CC3)cc12 (single isomer, unassigned) [Example 415, (S or R)-2-{[1-(4-chlorobenzoyl)piperidin-4-yl]methyl}-N-(1,4-dioxan-2-ylmethyl)-4-methyl-2H-indazol-5-carboxamide] | 21.3 | xxx (xxx > 100) | xxx (xxx > 100)
COCCNC(=O)c1cc2cn(CC3CN(C(=O)c4cc(F)cc(F)c4)C3)nc2cc1C [Example 179, 2-{[1-(3,5-Difluorobenzoyl)azetidin-3-yl]methyl}-N-(2-methoxyethyl)-6-methyl-2H-indazol-5-carboxamide] | 2610 | x (x: 1-10) | x (x: 1-10)
COC(C)CNC(=O)c1ccc2nn(CC3CN(C(=O)c4ccc(Cl)cc4)C3)cc2c1C (single isomer, unassigned) [Example 139, (R or S)-2-{[1-(4-chlorobenzoyl)azetidin-3-yl]methyl}-N-(2-methoxypropyl)-4-methyl-2H-indazol-5-carboxamide] | 419 | xx (xx: 10-100) | xx (xx: 10-100)
COCCNC(=O)c1ccc2nn(CC3CCN(C(=O)c4ccc(-c5ccc(C)cc5)cc4F)CC3)cc2c1C [Example 44, 2-({1-[(3-fluoro-4′-methylbiphenyl-4-yl)carbonyl]piperidin-4-yl}methyl)-N-(2-methoxyethyl)-4-methyl-2H-indazol-5-carboxamide] | 3.85 | xxx (xxx > 100) | xxx (xxx > 100)
